Molecular target: T1, recombinant c-Myc/Max (Homo sapiens, UniProt P01106+P61244)
T1 construct: made in house
Assay: Electrophoretic mobility shift assay (EMSA): inhibitory activity on DNA binding of recombinant c-Myc/Max
Conditions: read-out: protein assay IC50
Procedure: 1) Preparation of Recombinant c-Myc and Max Proteins
Recombinant proteins were prepared as described in the following references: K. C. Jung et al., Fatty Acids, Inhibitors for the DNA Binding of c-Myc/Max Dimer, Suppress Proliferation and Induce Apoptosis of Differentiated HL-60 Human Leukemia Cell, Leukemia, 2006, 20(1), 122-7 or Kyung-Chae Jeong et al., Small-Molecule Inhibitors of c-Myc Transcriptional Factor Suppress Proliferation and Induce Apoptosis of Promyelocytic Leukemia Cell via Cell Cycle Arrest, Mol. BioSyst., 2010, 6, 1503-1509.
2) Electrophoretic Mobility Shift Assay (EMSA)
The inhibitory activity of each candidate compound on DNA binding of recombinant c-Myc/Max was measured using an electrophoretic mobility shift assay (EMSA). The ratio of protein-DNA complexes in each sample was evaluated by measuring band intensity. The oligonucleotides (E-box) corresponding to the consensus binding site of Myc/Max were dimerized through an annealing process. The protein mixture was incubated at room temperature for 5 minutes, and a DMSO solution containing each candidate compound was added thereto. The mixture was further incubated for 5 minutes, and the biotinylated DNA was added. To achieve a state of equilibrium, the final mixture was incubated at room temperature for 10 minutes. The protein-DNA complexes were separated from unbound free DNA by pre-electrophoresis using 8% polyacrylamide gel and 1×TBE buffer. After pre-electrophoresis, electrophoresis was performed at 120 V for 1 hour in 1×TBE buffer. Each band was visualized using HRP-conjugated streptavidin and an ECL solution, and band intensity was measured using image analysis software.

T1 sequence (P01106 whole entry): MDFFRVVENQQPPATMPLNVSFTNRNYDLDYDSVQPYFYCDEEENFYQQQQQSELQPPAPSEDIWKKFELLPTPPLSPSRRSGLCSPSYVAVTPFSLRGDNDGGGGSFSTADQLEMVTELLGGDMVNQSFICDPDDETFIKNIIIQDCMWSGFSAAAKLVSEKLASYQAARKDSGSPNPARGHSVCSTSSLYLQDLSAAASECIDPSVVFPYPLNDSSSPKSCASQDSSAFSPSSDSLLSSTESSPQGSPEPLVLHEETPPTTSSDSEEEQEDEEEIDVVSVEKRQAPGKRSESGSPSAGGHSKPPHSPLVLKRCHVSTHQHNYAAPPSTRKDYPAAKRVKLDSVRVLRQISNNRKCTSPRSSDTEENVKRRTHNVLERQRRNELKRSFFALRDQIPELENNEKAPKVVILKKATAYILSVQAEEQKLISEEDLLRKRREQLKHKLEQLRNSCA
T1 sequence (P61244 whole entry): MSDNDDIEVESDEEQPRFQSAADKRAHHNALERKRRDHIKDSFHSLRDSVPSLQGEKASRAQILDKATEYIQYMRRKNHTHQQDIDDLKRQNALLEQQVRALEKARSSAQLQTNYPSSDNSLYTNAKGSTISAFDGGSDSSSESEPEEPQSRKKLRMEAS

Work on `CSc1c(C(C)=O)c(=O)c2c(Cl)ccc(Br)c2n1C(C)=O` [Compound 18, 1,1′-(8-bromo-5-chloro-2-(methylthio)-4-oxoquinoline-1,3(4H)-diyl)bis(ethan-1-one)] yielded an IC50 of under 1000 nM.
In the case of `CC(=O)c1c(S/C=C\C(=O)O)[nH]c2c(Br)ccc(Cl)c2c1=O` [Compound 67, (Z)-3-((3-acetyl-8-bromo-5-chloro-4-oxo-1,4-dihydroquinolin-2-yl)thio)acrylic acid], the IC50 is reported as under 1000 nM.
`CC(=O)c1c(SCc2cc(Cl)ccc2Cl)[nH]c2c(Br)ccc(Cl)c2c1=O` [Compound 43, 3-acetyl-8-bromo-5-chloro-2-((2,5-dichlorobenzyl)thio)quinolin-4(1H)-one] was tested, and the IC50 was under 1000 nM.
In the case of `CC(=O)c1c([S+]([O-])Cc2ccc(I)cc2)[nH]c2c(Cl)ccc(Cl)c2c1=O` (stereo not shown) [Compound 83, 3-acetyl-5,8-dichloro-2-((4-iodobenzyl)sulfinyl)quinolin-4(1H)-one], the IC50 is reported as under 1000 nM.
Work on `CC(=O)c1c([S+]([O-])Cc2ccc(N)nc2)[nH]c2c(Br)ccc(Cl)c2c1=O` (stereo not shown) [Compound 100, 3-acetyl-2-(((6-aminopyridin-3-yl)methyl)sulfinyl)-8-bromo-5-chloroquinolin-4(1H)-one] yielded an IC50 of under 1000 nM.
Work on `CSc1c(C(C)=O)c(=O)c2c(Cl)ccc(Br)c2n1S(=O)(=O)c1ccc(Cl)cc1` [Compound 37, 3-acetyl-8-bromo-5-chloro-1-((4-chlorophenyl)sulfonyl)-2-(methylthio)quinolin-4(1H)-one] yielded an IC50 of under 1000 nM.
In the case of `CSc1c(C(C)=O)c(=O)c2c(Cl)ccc(Br)c2n1S(C)(=O)=O` [Compound 35, 3-acetyl-8-bromo-5-chloro-1-(methylsulfonyl)-2-(methylthio)quinolin-4(1H)-one], the IC50 is reported as under 1000 nM.
`CC(=O)c1c(S)[nH]c2c(Br)ccc(Cl)c2c1=O` [Compound 62, 3-acetyl-8-bromo-5-chloro-2-mercaptoquinolin-4(1H)-one] gave an IC50 of under 1000 nM.
In the case of `CC(=O)c1c([S+]([O-])Cc2ccc(S(F)(F)(F)(F)F)cc2)[nH]c2c(F)ccc(F)c2c1=O` (stereo not shown) [Compound 80, 3-acetyl-5,8-difluoro-2-((4-(pentafluoro-λ6-sulfanyl)benzyl)sulfinyl)quinolin-4(1H)-one], the IC50 is reported as under 1000 nM.
`CC(=O)c1c([S+]([O-])Cc2ccccc2)n(C(=O)c2ccc(Br)cc2)c2c(Br)ccc(Cl)c2c1=O` (stereo not shown) [Compound 20, 3-acetyl-2-(benzylsulfinyl)-8-bromo-1-(4-bromobenzoyl)-5-chloroquinolin-4(1H)-one] showed an IC50 of under 1000 nM.
With `CC(=O)c1c([S+]([O-])Cc2ccc(SC(F)(F)F)cc2)[nH]c2c(Cl)ccc(Cl)c2c1=O` (stereo not shown) [Compound 79, 3-acetyl-5,8-dichloro-2-((4-((trifluoromethyl)thio)benzyl)sulfinyl)quinolin-4(1H)-one] the IC50 was under 1000 nM.
Work on `COc1cccc(C[S+]([O-])c2[nH]c3c(Br)ccc(Cl)c3c(=O)c2C(C)=O)c1` (stereo not shown) [Compound 55, 3-acetyl-8-bromo-5-chloro-2-((3-methoxybenzyl)sulfinyl)quinolin-4(1H)-one] yielded an IC50 of under 1000 nM.
Work on `CC(=O)c1c([S+]([O-])Cc2c(F)cccc2Cl)[nH]c2c(Br)ccc(Cl)c2c1=O` (stereo not shown) [Compound 74, 3-acetyl-8-bromo-5-chloro-2-((2-chloro-6-fluorobenzyl)sulfinyl)quinolin-4(1H)-one] yielded an IC50 of under 1000 nM.
`CC(=O)c1c(SCc2ccc([N+](=O)[O-])cc2)[nH]c2c(Br)ccc(Cl)c2c1=O` [Compound 32, 3-acetyl-8-bromo-5-chloro-2-((4-nitrobenzyl)thio)quinolin-4(1H)-one] was tested, and the IC50 was under 1000 nM.
Molecule `CC(=O)c1c(SCc2cc(F)cc(F)c2)[nH]c2c(Br)ccc(Cl)c2c1=O` [Compound 45, 3-acetyl-8-bromo-5-chloro-2-((3,5-difluorobenzyl)thio)quinolin-4(1H)-one] has an IC50 of under 1000 nM.
In the case of `CC(=O)c1c([S+]([O-])Cc2ccc([S+]([O-])C(F)(F)F)cc2)[nH]c2c(Br)ccc(Cl)c2c1=O` (stereo not shown) [Compound 64, 3-acetyl-8-bromo-5-chloro-2-((4-((trifluoromethyl)sulfinyl)benzyl)sulfinyl)quinolin-4(1H)-one], the IC50 is reported as under 1000 nM.
For `CC(=O)c1c(SCc2cccc(F)c2)[nH]c2c(Br)ccc(Cl)c2c1=O` [Compound 49, 3-acetyl-8-bromo-5-chloro-2-((3-fluorobenzyl)thio)quinolin-4(1H)-one], the IC50 was under 1000 nM.
With `CC(=O)c1c(S(C)(=O)=O)n(C(=O)c2ccc(Br)cc2)c2c(Br)ccc(Cl)c2c1=O` [Compound 21, 3-acetyl-8-bromo-1-(4-bromobenzoyl)-5-chloro-2-(methylsulfonyl)quinolin-4(1H)-one] the IC50 was under 1000 nM.
For `CC(=O)c1c([S+]([O-])Cc2ccc(Cl)nc2)[nH]c2c(Br)ccc(Cl)c2c1=O` (stereo not shown) [Compound 104, 3-acetyl-8-bromo-5-chloro-2-(((6-chloropyridin-3-yl)methyl)sulfinyl)quinolin-4(1H)-one], the IC50 was under 1000 nM.
Molecule `CC(=O)c1c(SCc2ccc(Cl)cc2)[nH]c2c(Br)ccc(Cl)c2c1=O` [Compound 10, 3-acetyl-8-bromo-5-chloro-2-((4-chlorobenzyl)thio)quinolin-4(1H)-one] has an IC50 of under 1000 nM.
Molecule `COC(=O)c1ccc(C[S+]([O-])c2[nH]c3c(Cl)ccc(Cl)c3c(=O)c2C(C)=O)o1` (stereo not shown) [Compound 89, methyl 5-(((3-acetyl-5,8-dichloro-4-oxo-1,4-dihydroquinolin-2-yl)sulfinyl)methyl)furan-2-carboxylate] has an IC50 of under 1000 nM.
With `O=C(c1ccccc1)c1c([S+]([O-])Cc2ccc(S(F)(F)(F)(F)F)cc2)[nH]c2c(F)ccc(F)c2c1=O` (stereo not shown) [Compound 87, 3-benzoyl-5,8-difluoro-2-((4-(pentafluoro-λ6-sulfanyl)benzyl)sulfinyl)quinolin-4(1H)-one] the IC50 was under 1000 nM.
In the case of `CC(=O)c1c([S+]([O-])Cc2ccc(C(F)(F)F)o2)[nH]c2c(F)ccc(F)c2c1=O` (stereo not shown) [Compound 81, 3-acetyl-5,8-difluoro-2-(((5-(trifluoromethyl)furan-2-yl)methyl)sulfinyl)quinolin-4(1H)-one], the IC50 is reported as under 1000 nM.
With `CC(=O)c1c([S+]([O-])CN2C(=O)c3ccccc3C2=O)[nH]c2c(Cl)ccc(Cl)c2c1=O` (stereo not shown) [Compound 90, 2-(((3-acetyl-5,8-dichloro-4-oxo-1,4-dihydroquinolin-2-yl)sulfinyl)methyl)isoindoline-1,3-dione] the IC50 was under 1000 nM.
For `CC(C)C(=O)c1c([S+]([O-])Cc2ccc(SC(F)(F)F)cc2)[nH]c2c(F)ccc(F)c2c1=O` (stereo not shown) [Compound 85, 5,8-difluoro-3-isobutyryl-2-((4-((trifluoromethyl)thio)benzyl)sulfinyl)quinolin-4(1H)-one], the IC50 was under 1000 nM.
`CC(=O)c1c(S(C)(=O)=O)n(S(=O)(=O)c2ccc(C(C)(C)C)cc2)c2c(Br)ccc(Cl)c2c1=O` [Compound 41, 3-acetyl-8-bromo-1-((4-(tert-butyl)phenyl)sulfonyl)-5-chloro-2-(methylsulfonyl)quinolin-4(1H)-one] was tested, and the IC50 was under 1000 nM.
`CC(=O)c1c(SCc2cccc(C#N)c2)[nH]c2c(Br)ccc(Cl)c2c1=O` [Compound 27, 3-(((3-acetyl-8-bromo-5-chloro-4-oxo-1,4-dihydroquinolin-2-yl)thio)methyl)benzonitrile] was tested, and the IC50 was under 1000 nM.
For `CC(=O)c1c([S+]([O-])C(C)c2ccccc2)[nH]c2c(Br)ccc(Cl)c2c1=O` (stereo not shown) [Compound 26, 3-acetyl-8-bromo-5-chloro-2-((1-phenylethyl)sulfinyl)quinolin-4(1H)-one], the IC50 was under 1000 nM.
